Test results reported in patent US20120035244A1, “PARP1 TARGETED THERAPY” (THE REGENTS OF THE UNIVERSITY OF MICHIGAN, priority 2010, published 2012).
“Also recorded” adds a separate entry of the source.

Columns and labels:
VCaP xenografts = assay: VCaP mouse xenograft model; type: in vivo, mice; conditions: VCaP; Olaparib 40 mg/kg/day IP (P=0.001); NU7026 25 mg/kg/day IP (p=0.004)
From the text: (§1) Olaparib was obtained from Axon Medchem (Groningen, The Netherlands).

PC3-LACZ xenografts = assay: PC3-LACZ mouse xenograft model; type: in vivo, mice; conditions: PC3-LACZ (ETS negative)
From the text: as §1

[1] = system: RWPE cells transduced with ERG adenovirus; assay: Basement membrane matrix invasion assay, RWPE cells transduced with ERG adenovirus; type: cell-based, human; conditions: P<0.01 for DNA-PKcs siRNA or NU7026>10 μM, P<0.05 for all PARP1 siRNA, NU1025 or Olaparib treatments
Protocol: (§2) For invasion assays, the prostate cell lines RWPE-1 and VCaP were transfected with siRNA or negative controls as indicated. NU7026 (Sigma) and NU1025 (Calbiochem) were dissolved in DMSO and stored at −20° C. in the dark. Forty-eight hours post-transfection/transduction, cells were seeded onto the basement membrane matrix (EC matrix, Chemicon, Temecula, Calif.) in the chamber insert with […] pores of a 24-well culture plate in serum free media. Cells were attracted to the lower chamber by the addition of complete media as a chemoattractant. After 48 hours incubation at 37° C. with 5% CO2, the non-invading cells and EC matrix were gently removed with a cotton swab. Invasive cells, which were located on the lower side of the membrane, were stained with crystal violet, air dried and photographed. To quantify the relative number of invaded cells, colorimetric assays were performed by treating the inserts with 150 μl of 10% acetic acid (v/v) and measuring absorbance of each condition at 560 nm using a spectrophotometer (GE Healthcare).

[2] = Total cell number after 72 hours (data not shown); type: cell-based
VCaP cells = assay: Basement membrane matrix invasion assay, VCaP cells; type: cell-based, human; conditions: P<0.01 for DNA-PKcs siRNA or NU7026>10 μM; P<0.05 for all PARP1 siRNA, NU1025 or Olaparib treatments
Protocol: as §2

[3] = system: ERG target genes in VCaP cells; assay: qPCR analysis of ERG-target genes in VCaP cells; type: cell-based, human; conditions: siRNA or drug for 48 hours
Protocol: Total RNA was isolated from VCAP, RWPE or PrEC cells that were transfected with siRNA as indicated (Qiagen). Quantitative PCR (QPCR) was performed using SYBR Green dye on an Applied Biosystems 7300 Real Time PCR system (Applied Biosystems, Foster City, Calif.) as described (Tomlins, S. A., et al. Science (New York, N.Y. 310, 644-648 (2005)). Briefly, 1 μg of total RNA was reverse transcribed into cDNA using SuperScript 111 (Invitrogen, Carlsbad, Calif.) in the presence of random primers (Invitrogen). All reactions were performed in triplicate with SYBR Green Master Mix (Applied Biosystems) plus 25 ng of both the forward and reverse primer according to the manufacturer's recommended thermocycling conditions, and then subjected to melt curve analysis. […] The relative quantity of the target gene was completed for each sample using the ΔΔCt method by the comparing mean Ct of the gene to the average Ct of the housekeeping gene, β-Actin8. […] The primer sequences for the transcript analyzed were either previously described (Tomlins et al., 2008, supra) or are provided in Table 4.
Total RNA was isolated from VCAP, RWPE or PrEC cells that were transfected with siRNA as indicated (Qiagen). […] The relative quantity of the target gene was completed for each sample using the ΔΔCt method by the comparing mean Ct of the gene to the average Ct of the housekeeping gene, β-Actin8. […]

PC3 xenografts = assay: PC3 (PC3-control) mouse xenograft model; type: in vivo, mice; conditions: PC3 / PC3-control (ETS negative); Olaparib 40 mg/kg IP, NU7026 25 mg/kg IP
From the text: as §1

[4] = system: VCaP and PC3 xenograft tumors; assay: Ki67 and CD31 immunohistochemistry on tissue microarray of VCaP and PC3 xenograft tumors; conditions: pairwise t-test
Protocol: Changes in both relative cell proliferation of the tumors (Ki67) and microvessel density (CD31) were assessed using a tissue microarray made from formalin-fixed, paraffin-embedded tumors from all xenograft tumors analyzed in the VCaP and PC3 studies.

[5] = system: ERG-target gene expression; assay: qPCR of ERG-target genes in staged PC3-ERG tumors; type: in vivo, mice; conditions: 4 hours, 40 mg/kg Olaparib or 25 mg/kg NU7026
PC3-ERG xenografts = conditions: mouse, in vivo
Protocol: Four weeks old male Balb C nu/nu mice were purchased from Charles River, Inc. (Charles River Laboratory, Wilmington, Mass.). VCaP (2×10^6 cells), PC3-luciferase-control (1×10^5 cells) or PC3-luciferase-ERG (1×10^5 cells) stable cells were resuspended in 100 μl of saline with 50% Matrigel (BD Biosciences, Becton Drive, NJ) and were implanted subcutaneously into the left flank region of the mice. Mice were anesthetized using a cocktail of xylazine (80-120 mg/kg, IP) and ketamine (10 mg/kg, IP) for chemical restraint before tumor implantation. All tumors were staged for three week before starting the drug treatment. After week 3 for VCaP cells or after 48 hours for PC3 cells, mice (10 per treatment group) were treated with NU7026 (25 mg/kg, IP), Olaparib (40 mg/kg, IP) daily five times a week. Olaparib was obtained from Axon Medchem (Groningen, The Netherlands). Growth in tumor volume was recorded weekly by using digital calipers and tumor volumes were calculated using the formula (π/6) (L×W2), where L=length of tumor and W=width. Loss of body weight during the course of the study was also monitored weekly.

O=c1cc(N2CCOCC2)oc2c1ccc1ccccc12 [NU7026]
tumor growth relative to the vehicle control (VCaP xenografts): significant reduction of tumor growth
xenograft growth (PC3-LACZ xenografts): did not significantly inhibit xenograft growth
ERG-driven cell invasion [1]: attenuated invasion
total cell number [2]: did not alter total cell number
VCaP cell invasion (VCaP cells): attenuated invasion
expression of the ERG target genes (qPCR) [3]: confirmed gene expression changes as predicted by the gene expression arrays; also recorded: altered expression of the ERG target genes
xenograft growth (PC3 xenografts): did not block the growth; also recorded: did not significantly inhibit xenograft growth
average number of Ki67 positive cells [4]: Neither NU7026 nor Olaparib consistently led to a significant change
microvessel density (CD31) [4]: Neither NU7026 nor Olaparib consistently led to a significant change
ERG-target gene expression in tumors (qPCR) [5]: loss of ERG-target gene expression
xenograft growth (PC3-ERG xenografts): unable to reduce the xenograft growth rate
